Data taken from ChEMBL document CHEMBL1138586 (Bioorg Med Chem Lett, 2009).

Legend:
[1] = Volume of distribution in Beagle dog at 0.1 mg/kg, iv and 1 mg/kg, po; type: ADME, organism-based, Canis lupus familiaris; details: in vivo
[2] = molecular target: T1, Voltage-gated inwardly rectifying potassium channel KCNH2 (Homo sapiens, UniProt Q12809)
[3] = Inhibition of trypsin
[4] = Oral bioavailability in rat at 6 mg/kg; type: ADME, organism-based; details: in vivo
[5] = Clearance in rat; type: ADME, organism-based; details: in vivo
[6] = AUC in rat at 6 mg/kg, po; type: ADME, organism-based; parameters: dose 6 mg/kg, route oral; details: plasma
[7] = molecular target: Coagulation factor X (Homo sapiens, UniProt P00742); test: Inhibition of Factor 10a
Chain of Coagulation factor X (P00742 41-179 limits assumed): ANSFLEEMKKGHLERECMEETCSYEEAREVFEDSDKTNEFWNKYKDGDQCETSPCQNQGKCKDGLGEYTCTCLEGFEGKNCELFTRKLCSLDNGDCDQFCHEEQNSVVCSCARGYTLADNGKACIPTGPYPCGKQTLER
Chain of Coagulation factor X (P00742 235-488 limits assumed): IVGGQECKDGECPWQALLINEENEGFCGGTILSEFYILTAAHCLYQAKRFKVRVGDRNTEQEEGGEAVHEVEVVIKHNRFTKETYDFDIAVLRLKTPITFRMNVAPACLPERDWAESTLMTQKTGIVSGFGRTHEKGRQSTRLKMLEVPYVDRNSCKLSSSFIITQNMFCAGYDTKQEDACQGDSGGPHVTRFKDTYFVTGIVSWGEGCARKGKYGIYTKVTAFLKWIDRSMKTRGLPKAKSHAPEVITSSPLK

[8] = Volume of distribution in cynomolgus monkey at 0.1 mg/kg, iv and 1 mg/kg, po; type: ADME, organism-based, Macaca fascicularis; details: in vivo
[9] = Half life in Beagle dog at 0.1 mg/kg, iv and 1 mg/kg, po; type: ADME, organism-based, Canis lupus familiaris; details: in vivo
[10] = Inhibition of kallikrein
[11] = AUC in cynomolgus monkey at 1 mg/kg, po; type: ADME, organism-based, Macaca fascicularis; parameters: dose 1 mg/kg, route oral; details: plasma
[12] = Oral bioavailability in Beagle dog at 1 mg/kg; type: ADME, organism-based, Canis lupus familiaris; details: in vivo
[13] = molecular target: Vitamin K-dependent protein C (Homo sapiens, UniProt P04070); test: Inhibition of activated anticoagulant protein C
Chain of Vitamin K-dependent protein C (P04070 43-197 limits assumed): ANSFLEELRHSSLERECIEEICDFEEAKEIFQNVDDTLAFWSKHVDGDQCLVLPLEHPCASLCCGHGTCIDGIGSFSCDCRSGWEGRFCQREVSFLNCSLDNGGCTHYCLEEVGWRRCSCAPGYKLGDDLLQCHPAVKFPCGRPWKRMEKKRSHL
Chain of Vitamin K-dependent protein C (P04070 212-461 limits assumed): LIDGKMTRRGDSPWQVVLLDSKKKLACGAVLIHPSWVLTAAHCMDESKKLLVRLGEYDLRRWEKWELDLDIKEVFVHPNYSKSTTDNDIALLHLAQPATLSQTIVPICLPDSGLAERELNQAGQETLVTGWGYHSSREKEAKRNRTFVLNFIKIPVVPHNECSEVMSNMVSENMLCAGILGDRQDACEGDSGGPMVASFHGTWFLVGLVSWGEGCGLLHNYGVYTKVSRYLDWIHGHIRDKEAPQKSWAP

[14] = AUC in Beagle dog at 1 mg/kg, po; type: ADME, organism-based, Canis lupus familiaris; parameters: dose 1 mg/kg, route oral; details: plasma
[15] = molecular target: Prothrombin (Homo sapiens, UniProt P00734); test: Inhibition of thrombin
[16] = Clearance in Beagle dog at 0.1 mg/kg, iv and 1 mg/kg, po; type: ADME, organism-based, Canis lupus familiaris; details: in vivo
[17] = molecular target: Plasminogen (Homo sapiens, UniProt P00747); test: Inhibition of plasmin
Chain of Plasminogen (P00747 97-580 limits assumed): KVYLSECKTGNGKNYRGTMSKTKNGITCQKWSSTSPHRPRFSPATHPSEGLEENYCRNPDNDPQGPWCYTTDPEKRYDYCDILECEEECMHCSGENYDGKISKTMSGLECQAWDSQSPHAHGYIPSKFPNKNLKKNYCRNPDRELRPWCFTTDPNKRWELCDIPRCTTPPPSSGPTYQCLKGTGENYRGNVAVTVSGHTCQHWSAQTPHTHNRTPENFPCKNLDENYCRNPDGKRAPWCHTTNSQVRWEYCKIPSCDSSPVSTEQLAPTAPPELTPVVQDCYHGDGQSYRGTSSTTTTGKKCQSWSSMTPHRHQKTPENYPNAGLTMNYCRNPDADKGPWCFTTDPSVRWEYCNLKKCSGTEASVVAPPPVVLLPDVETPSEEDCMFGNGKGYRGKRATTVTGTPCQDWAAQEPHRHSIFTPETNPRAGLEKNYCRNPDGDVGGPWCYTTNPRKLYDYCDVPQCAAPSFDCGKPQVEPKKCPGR
Chain of Plasminogen (P00747 581-810 limits assumed): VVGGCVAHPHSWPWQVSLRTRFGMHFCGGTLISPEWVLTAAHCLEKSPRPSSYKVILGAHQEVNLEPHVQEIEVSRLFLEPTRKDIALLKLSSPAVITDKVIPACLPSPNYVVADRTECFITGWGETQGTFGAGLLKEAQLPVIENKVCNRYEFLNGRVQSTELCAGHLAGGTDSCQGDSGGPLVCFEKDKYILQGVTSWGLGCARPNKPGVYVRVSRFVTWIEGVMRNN

[18] = Oral bioavailability in cynomolgus monkey at 1 mg/kg; type: ADME, organism-based, Macaca fascicularis; details: in vivo
[19] = molecular target: Tissue-type plasminogen activator (Homo sapiens, UniProt P00750); test: Inhibition of tissue plasminogen activator
Chain of Tissue-type plasminogen activator (P00750 whole entry): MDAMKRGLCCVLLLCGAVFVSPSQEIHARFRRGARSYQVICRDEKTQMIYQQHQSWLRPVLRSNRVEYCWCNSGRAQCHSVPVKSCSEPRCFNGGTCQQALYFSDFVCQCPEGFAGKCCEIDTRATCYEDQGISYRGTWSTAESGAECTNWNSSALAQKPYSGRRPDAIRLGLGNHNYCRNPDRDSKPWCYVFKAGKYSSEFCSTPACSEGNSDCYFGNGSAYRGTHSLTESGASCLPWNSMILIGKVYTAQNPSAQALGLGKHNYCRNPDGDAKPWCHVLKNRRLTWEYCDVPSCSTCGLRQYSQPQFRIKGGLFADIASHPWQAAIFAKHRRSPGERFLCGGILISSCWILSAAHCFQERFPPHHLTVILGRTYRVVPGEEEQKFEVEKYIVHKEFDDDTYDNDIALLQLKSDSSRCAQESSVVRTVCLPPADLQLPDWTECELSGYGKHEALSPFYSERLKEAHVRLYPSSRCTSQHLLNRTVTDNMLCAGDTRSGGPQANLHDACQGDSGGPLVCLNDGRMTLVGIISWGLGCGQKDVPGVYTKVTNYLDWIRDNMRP

[20] = Volume of distribution in rat at 0.2 mg/kg, iv and 6 mg/kg, po; type: ADME, organism-based; details: in vivo
[21] = Clearance in rat at 0.2 mg/kg, iv and 6 mg/kg, po; type: ADME, organism-based; details: in vivo
[22] = Oral bioavailability in rat; type: ADME, organism-based; details: in vivo
[23] = Half life in rat at 0.2 mg/kg, iv and 6 mg/kg, po; type: ADME, organism-based; details: in vivo
[24] = Half life in cynomolgus monkey at 0.1 mg/kg, iv and 1 mg/kg, po; type: ADME, organism-based, Macaca fascicularis; details: in vivo
[25] = Clearance in cynomolgus monkey at 0.1 mg/kg, iv and 1 mg/kg, po; type: ADME, organism-based, Macaca fascicularis; details: in vivo
[26] = Half life in rat; type: ADME, organism-based; details: in vivo
[27] = Metabolic stability in human liver S9 fraction at 1 uM by HPLC; type: ADME, subcellular
[28] = Metabolic stability in rat liver S9 fraction at 1 uM by HPLC; type: ADME, subcellular
[29] = Clearance in Beagle dog at 0.5 mg/kg, iv and 2.5 mg/kg, po; type: ADME, organism-based, Canis lupus familiaris; details: in vivo
[30] = AUC in rat at 5 mg/kg, po; type: ADME, organism-based; parameters: dose 5 mg/kg, route oral; details: plasma
[31] = Oral bioavailability in cynomolgus monkey at 7.5 mg/kg; type: ADME, organism-based, Macaca fascicularis; details: in vivo
[32] = Volume of distribution in Beagle dog at 0.5 mg/kg, iv and 2.5 mg/kg, po; type: ADME, organism-based, Canis lupus familiaris; details: in vivo
[33] = Volume of distribution in cynomolgus monkey at 0.75 mg/kg, iv and 7.5 mg/kg, po; type: ADME, organism-based, Macaca fascicularis; details: in vivo
[34] = Oral bioavailability in rat at 5 mg/kg; type: ADME, organism-based; details: in vivo
[35] = Oral bioavailability in Beagle dog at 2.5 mg/kg; type: ADME, organism-based, Canis lupus familiaris; details: in vivo
[36] = Clearance in rat at 1 mg/kg, iv and 5 mg/kg, po; type: ADME, organism-based; details: in vivo
[37] = Half life in cynomolgus monkey at 0.75 mg/kg, iv and 7.5 mg/kg, po; type: ADME, organism-based, Macaca fascicularis; details: in vivo
[38] = Half life in rat at 1 mg/kg, iv and 5 mg/kg, po; type: ADME, organism-based; details: in vivo
[39] = Half life in Beagle dog at 0.5 mg/kg, iv and 2.5 mg/kg, po; type: ADME, organism-based, Canis lupus familiaris; details: in vivo
[40] = AUC in Beagle dog at 2.5 mg/kg, po; type: ADME, organism-based, Canis lupus familiaris; parameters: dose 2.5 mg/kg, route oral; details: plasma
[41] = molecular target: T1, Voltage-gated inwardly rectifying potassium channel KCNH2; test: Inhibition of human ERG expressed in HEK293 cells by patch-clamp method; type: cell-based
[42] = Fraction unbound in human plasma at 10 uM after 30 mins; type: ADME, cell-free
[43] = AUC in cynomolgus monkey at 7.5 mg/kg, po; type: ADME, organism-based, Macaca fascicularis; parameters: dose 7.5 mg/kg, route oral; details: plasma
[44] = Clearance in cynomolgus monkey at 0.75 mg/kg, iv and 7.5 mg/kg, po; type: ADME, organism-based, Macaca fascicularis; details: in vivo
[45] = Volume of distribution in rat at 1 mg/kg, iv and 5 mg/kg, po; type: ADME, organism-based; details: in vivo

T1 sequence (Q12809 whole entry): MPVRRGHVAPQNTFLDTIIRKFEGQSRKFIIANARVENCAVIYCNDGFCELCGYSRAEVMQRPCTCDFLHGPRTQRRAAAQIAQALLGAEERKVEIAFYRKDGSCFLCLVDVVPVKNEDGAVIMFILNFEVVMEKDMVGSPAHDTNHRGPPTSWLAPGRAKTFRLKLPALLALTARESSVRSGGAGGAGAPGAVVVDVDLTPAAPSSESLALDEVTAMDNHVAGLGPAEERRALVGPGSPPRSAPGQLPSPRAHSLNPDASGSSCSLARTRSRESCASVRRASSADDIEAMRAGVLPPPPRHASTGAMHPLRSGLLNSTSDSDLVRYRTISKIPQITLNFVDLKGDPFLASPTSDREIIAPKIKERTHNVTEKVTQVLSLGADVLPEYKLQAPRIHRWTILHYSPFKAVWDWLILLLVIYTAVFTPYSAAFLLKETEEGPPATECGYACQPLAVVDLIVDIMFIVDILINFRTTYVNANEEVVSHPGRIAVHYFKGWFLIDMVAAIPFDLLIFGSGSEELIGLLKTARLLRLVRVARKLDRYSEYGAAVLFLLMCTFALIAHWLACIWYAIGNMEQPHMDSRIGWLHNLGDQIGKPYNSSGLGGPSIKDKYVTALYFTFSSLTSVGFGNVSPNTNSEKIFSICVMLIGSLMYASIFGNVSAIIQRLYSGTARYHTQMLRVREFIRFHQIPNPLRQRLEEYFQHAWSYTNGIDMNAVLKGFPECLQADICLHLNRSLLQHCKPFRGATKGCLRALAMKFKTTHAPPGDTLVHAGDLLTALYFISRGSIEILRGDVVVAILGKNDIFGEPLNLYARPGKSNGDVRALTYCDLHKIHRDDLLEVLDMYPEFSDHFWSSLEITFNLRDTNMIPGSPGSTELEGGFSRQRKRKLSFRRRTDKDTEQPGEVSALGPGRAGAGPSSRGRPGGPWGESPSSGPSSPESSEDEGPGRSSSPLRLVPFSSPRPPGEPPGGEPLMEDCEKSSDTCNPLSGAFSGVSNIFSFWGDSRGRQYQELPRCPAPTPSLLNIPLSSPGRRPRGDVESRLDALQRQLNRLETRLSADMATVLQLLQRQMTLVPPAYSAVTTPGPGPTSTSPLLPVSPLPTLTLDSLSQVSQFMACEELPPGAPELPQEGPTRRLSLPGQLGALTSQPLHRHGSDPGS

CN(C)C(=N)c1ccc(C(=O)Nc2ccc(Cl)cc2C(=O)Nc2ccc(Cl)cn2)c(F)c1
Vd [1]: 35.1 L/kg
Ki [2]: 420 nM
IC50 [3]: > 10000 nM
bioavailability [4]: 38%
clearance [5]: 15.3 mL/min/kg
AUC [6]: 2420 ng·h/mL
IC50 [7]: < 0.5 nM
Ki [7]: 0.06 nM
Vd [8]: 20.5 L/kg
half-life [9]: 13.1 h
IC50 [10]: 540 nM
AUC [11]: 1300 ng·h/mL
bioavailability [12]: 68.8%
IC50 [13]: > 10000 nM
AUC [14]: 381 ng·h/mL
IC50 [15]: > 10000 nM
clearance [16]: 30.5 mL/min/kg
IC50 [17]: > 10000 nM
bioavailability [18]: 86.1%
IC50 [19]: > 10000 nM
Vd [20]: 6.9 L/kg
clearance [21]: 15.3 mL/min/kg
bioavailability [22]: 38%
half-life [23]: 5.2 h
half-life [24]: 22.8 h
clearance [25]: 11.2 mL/min/kg

C#Cc1ccc(NC(=O)c2cc(Cl)ccc2NC(=O)c2ccc(C(=N)N(C)C)cc2)nc1
clearance [5]: > 100 mL/min/kg
IC50 [7]: 0.8 nM
half-life [26]: 6.3 h
half-life at 1 µM [27]: > 2 h
half-life at 1 µM [28]: > 2 h

COc1ccc(NC(=O)c2ccc(C(=N)N(C)C)cc2F)c(C(=O)Nc2ccc(Cl)cn2)c1
Ki [2]: 2100 nM
clearance [29]: 24.6 mL/min/kg
AUC [30]: 770 ng·h/mL
bioavailability [31]: 77.6%
IC50 [7]: 0.7 nM
Ki [7]: 0.105 nM
Vd [32]: 16.8 L/kg
Vd [33]: 16.3 L/kg
bioavailability [34]: 48.6%
IC50 [10]: 7200 nM
bioavailability [35]: 88.9%
clearance [36]: 57.5 mL/min/kg
half-life [37]: 11.4 h
half-life [38]: 5.5 h
half-life [39]: 7.9 h
AUC [40]: 1500 ng·h/mL
IC50 [41]: 4200 nM
fraction unbound at 0.5 h, 10 µM [42]: 0.634
AUC [43]: 6170 ng·h/mL
clearance [44]: 16.2 mL/min/kg
Vd [45]: 26.5 L/kg
